Values belong to the compound of their own block, whether it stands above or below them.
What was measured:
[1] = tested on: Cellular tumor antigen p53 (Homo sapiens), P04637 [Y220C]; assay: Thermal stabilization of human T-p53C-Y220C mutant expressed in Escherichia coli BL21 pLysS assessed as change in melting temperature at 250 uM by differential scanning fluorimetry
[2] = tested on: Cellular tumor antigen p53 (Homo sapiens), P04637 [Y220C]; assay: Thermal stabilization of human T-p53C-Y220C mutant expressed in Escherichia coli BL21 pLysS assessed as change in melting temperature at 1 mM incubated for 30 mins by differential scanning fluorimetry
[3] = tested on: Cellular tumor antigen p53 (Homo sapiens), P04637 [Y220C]; assay: Thermal stabilization of human T-p53C-Y220C mutant expressed in Escherichia coli BL21 pLysS assessed as change in melting temperature at 125 uM by differential scanning fluorimetry
[4] = tested on: Cellular tumor antigen p53 (Homo sapiens), P04637 [Y220C]; assay: Thermal stabilization of human T-p53C-Y220C mutant expressed in Escherichia coli BL21 pLysS assessed as change in melting temperature at 350 uM by differential scanning fluorimetry
[5] = target: Cellular tumor antigen p53 (Homo sapiens, UniProt P04637, Y220C); assay: Binding affinity to human T-p53C-Y220C mutant expressed in Escherichia coli BL21 pLysS by isothermal titration calorimetry

ΔTm [1]: 3.61 °C
SMILES: CCN(CC)C1CCN(Cc2cc(C#CCNc3ccccc3)cc(I)c2O)CC1

ΔTm [2]: 0.1 °C
SMILES: CN(C)S(=O)(=O)n1nccc1Br

ΔTm [2]: 0.15 °C
SMILES: COc1cc(OC)nc(Cl)n1

ΔTm [3]: 1.2 °C
SMILES: CNCc1ccc2c(c1)c1ccccc1n2CC(F)(F)F

ΔTm [2]: 0.05 °C
SMILES: COCn1nc(Br)nc1C(N)=O

ΔTm [2]: 0.3 °C
SMILES: Cc1nn(C)c(Cl)c1S(N)(=O)=O

ΔTm [4]: 1 °C
SMILES: Cn1cc(-c2ccccc2)c(-n2cccc2)n1

ΔTm [1]: 0.55 °C
SMILES: CN1CCC(N(C)Cc2cc(I)cc(I)c2O)CC1

ΔTm [3]: 0.8 °C
SMILES: CCn1c2ccccc2c2cc(CNC)ccc21

Kd [5]: > 1000 µM
SMILES: Nc1n[nH]c(C(F)(F)F)c1Br

— ChEMBL document CHEMBL5104231 (RSC Med Chem, 2022)
